Source: ChEMBL document CHEMBL1201862, “PubChem BioAssay data set” (2004)
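Briefly, cells in 96-well plates were exposed to five compound concentrations for 48 h, and endpoints were estimated by linear interpolation. Here, GI50 denotes the concentration required for 50% inhibition of growth.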 The source made the active and inactive calls. Cut-off read from the data, not from the text of the source: active = GI50 up to about 1.1 µM and inactive = higher.

What was measured:
Assay in all cases: NCI tumour cell line growth inhibition, 48 h
MDA-N = system: MDA-N
T47D = system: T47D
Hs-578T = system: Hs-578T
DLD-1 = system: DLD-1
DMS-273 = system: DMS-273
M19-MEL = system: M19-MEL
RXF 631 = system: RXF 631
LXFL 529 = system: LXFL 529
XF498 = system: XF498

Row | Structure (SMILES) | GI50 (MDA-N) | GI50 (T47D) | GI50 (Hs-578T) | GI50 (DLD-1) | GI50 (DMS-273) | GI50 (M19-MEL) | GI50 (RXF 631) | GI50 (LXFL 529) | GI50 (XF498)
1 | CC(=O)/N=C1\N/C(=C/c2cc([N+](=O)[O-])ccc2O)CN1C | > 100 µM (inactive) | > 100 µM (inactive) | – | – | – | – | – | – | –
2 | CN1C(=O)C(C#N)C2C[C@@]1(C)Oc1ccccc12 (stereo partly specified) | > 100 µM (inactive) | – | > 100 µM (inactive) | – | – | – | – | – | –
3 | CC1=C(SCCO)C(=O)c2ccccc2C1=O | 5.09 µM (inactive) | 3.21 µM (inactive) | 12.2 µM (inactive) | – | – | – | – | – | –
4 | C=C1CC[C@@H](Br)C(C)(C)[C@]12CCC(C)(O)C(Cl)C2 (stereo partly specified) | – | – | – | 17.5 µM (inactive) | 18.8 µM (inactive) | 18.8 µM (inactive) | 18.5 µM (inactive) | – | –
5 | CCOC(=O)/C=C1/C(CCCOCc2ccccc2)C2CCCC23CC2(CCN13)OCCO2 (stereo unspecified) | – | – | – | 19 µM (inactive) | 16.8 µM (inactive) | 19.6 µM (inactive) | 30.1 µM (inactive) | 22.2 µM (inactive) | 12.3 µM (inactive)
6 | Nc1n[nH]c2c1Cc1c(n(Cc3ccc(Cl)cc3)c3ccccc13)C(=O)N2 | 2.78 µM (inactive) | 12.3 µM (inactive) | 13.3 µM (inactive) | – | – | – | – | – | –
7 | COc1cc(OC)cc(Oc2nc3cc(F)c(F)cc3nc2-c2ccccc2)c1 | > 100 µM (inactive) | > 100 µM (inactive) | > 100 µM (inactive) | – | – | – | – | – | –
8 | O=C(NN1C(=O)CSC1c1ccc(C(F)(F)F)cc1)c1ccncc1 (stereo unspecified) | – | – | – | > 100 µM (inactive) | > 100 µM (inactive) | > 100 µM (inactive) | – | – | > 100 µM (inactive)
9 | N/C(=N\O)N/N=C/c1ncccc1O | – | – | – | 5.65 µM (inactive) | 7.28 µM (inactive) | 19.2 µM (inactive) | – | – | 12.4 µM (inactive)
10 | Clc1cc(N/N=C(\c2ccccc2)c2ccccn2)ncn1 | 3.33 µM (inactive) | < 0.01 µM (active) | 3.38 µM (inactive) | – | – | – | – | – | –
11 | COc1ccc2nc3c(C)cc4ccccc4n3c2c1 | > 100 µM (inactive) | > 100 µM (inactive) | 18 µM (inactive) | – | – | – | – | – | –
12 | CC12CCC(=O)N1c1cnccc1N2 (stereo unspecified) | – | – | – | > 100 µM (inactive) | > 100 µM (inactive) | – | – | > 100 µM (inactive) | –
13 | Nc1c(S(=O)(=O)O)cc(S(=O)(=O)O)c2ccc(/N=N/c3ccc(/C=C/c4ccc(/N=N/c5ccc6c(S(=O)(=O)O)cc(S(=O)(=O)O)c(N)c6c5O)cc4S(=O)(=O)O)c(S(=O)(=O)O)c3)c(O)c12 | – | – | – | > 100 µM (inactive) | > 100 µM (inactive) | > 100 µM (inactive) | – | – | > 46.6 µM (inactive)
14 | N#Cc1c(Cl)cc(Cl)n2c1nc1ccccc12 | 10.1 µM (inactive) | 5.64 µM (inactive) | 11 µM (inactive) | – | – | – | – | – | –
15 | CCOC(=O)CCc1c(C)c2c(O)cc(O)cc2oc1=O | – | – | – | > 100 µM (inactive) | > 100 µM (inactive) | > 100 µM (inactive) | – | – | > 100 µM (inactive)
16 | CCOc1ncn(-c2ccc(NC(=S)Nc3cccc(O)c3)cc2)n1 | > 100 µM (inactive) | > 100 µM (inactive) | – | – | – | – | – | – | –
17 | CC1(C)OC[C@H](C(=N)OCc2ccccc2)O1 | – | – | – | > 100 µM (inactive) | > 100 µM (inactive) | > 100 µM (inactive) | – | > 100 µM (inactive) | > 100 µM (inactive)
18 | Brc1ccc2[nH]cc([C@@H]3CN[C@@H](c4c[nH]c5ccc(Br)cc45)CN3)c2c1 | – | 8.13 µM (inactive) | 6.95 µM (inactive) | – | – | – | – | – | –
19 | CCCCCCCCCCCCCCCc1nnc(S)[nH]1 | – | – | – | > 10 µM (inactive) | – | > 100 µM (inactive) | – | 30.5 µM (inactive) | > 100 µM (inactive)
20 | N#C/C(=C\c1ccc(Cl)cc1)c1nc2ccccc2c(=O)[nH]1 | > 100 µM (inactive) | > 100 µM (inactive) | 17.9 µM (inactive) | – | – | – | – | – | –
21 | O=C1C=CC=C/C1=C1\N=C(c2ccccc2OCC(=O)c2ccccc2)SS1 | > 100 µM (inactive) | – | 26.9 µM (inactive) | – | – | – | – | – | –
22 | O=C1OC(CN2CCOCC2)CN1/N=C/c1ccc([N+](=O)[O-])o1 (stereo unspecified) [FURALTADONE] | – | 28.8 µM (inactive) | 54.6 µM (inactive) | – | – | – | – | – | –
